Like-named read-outs stand apart in the source and are kept apart here.
Legend:
[1] = tested on: CD8+ T cells of AE17 tumor-bearing mice; test: Ex-vivo restimulation with recombinant mesothelin and intracellular IFN-γ detection, AE17 mice; assay type: in vivo, mouse; conditions: AE17 model, compared to saline
[2] = tested on: T cells in spleens, lymph nodes and tumors of AE17 tumor-bearing mice; test: Immune profiling by flow cytometry, AE17 tumor-bearing mice; assay type: in vivo, mouse; conditions: for proportion of CD8+ T cells in total live cells: compared to saline control
[3] = 0.01-0.02 mg/kg subcutaneously twice daily for 6 months; cited from earlier work
[4] = tested on: AE17 mouse mesothelioma; test: Intraperitoneal malignant mesothelioma model, tumor growth and survival, AE17; assay type: in vivo; conditions: compared to saline control
[5] = tested on: ovarian cancer; conditions: monotherapy in ovarian tumor-bearing mice; cited from earlier work
[6] = tested on: CD8+ T cells of 40 L tumor-bearing mice; test: Ex-vivo restimulation with recombinant mesothelin and intracellular IFN-γ detection, 40 L mice; assay type: in vivo, mouse; conditions: splenic CD8+ T cells; 40 L model; compared to saline
[7] = tested on: GFP-Foxp3 expressing CD4+ splenocytes (Treg cells); conditions: AMD3100 5 μg/ml, 24 hours
[8] = tested on: T cells in spleens and tumors of 40 L tumor-bearing mice; test: Immune profiling by flow cytometry, 40 L tumor-bearing mice; assay type: in vivo, mouse; conditions: for proportion of CD8+ T cells in total live cells: compared to saline control
[9] = tested on: 40 L mouse mesothelioma; test: Intraperitoneal malignant mesothelioma model, tumor growth and survival, 40 L; assay type: in vivo; conditions: 40 L model; compared to saline control
[10] = lymph nodes, AE17 model, compared to saline
[11] = tumors, AE17 model, compared to saline
[12] = tumors, 40 L model, compared to saline

SMILES: c1cc(CN2CCCNCCNCCCNCC2)ccc1CN1CCCNCCNCCCNCC1 [AMD3100, plerixafor]
- mesothelin-specific IFN-γ expression in CD8+ T cells ([1]; lymph node CD8+ T cells): did not enhance
- mesothelin-specific IFN-γ expression in CD8+ T cells ([1]; splenic CD8+ T cells): did not enhance
- IL-2+ CD40L+ cells among the Foxp3+ CD25− Treg population ([2]; lymph nodes of AE17 mice): significantly more
- ratio of CD25− cells to CD25+ cells within the Foxp3+ population ([2]; lymph nodes, AE17 model): significantly increased
- cell ratio of CD8+ T cells to Treg cells [2, 10]: significantly increased
- proportion of PD-1-expressing CD8+ T cells [2, 10]: significantly fewer
- proportion of CD8+ T cells in total live cells ([2]; lymph nodes, AE17 model): did not increase
- Treg in the lymph nodes ([2]; lymph nodes, AE17 tumor-bearing mice): generally reduced
- proportion of PD-1-expressing CD8+ T cells ([2]; spleens, AE17 model, compared to saline): significantly fewer
- proportion of CD8+ T cells in total live cells ([2]; spleens, AE17 model): did not increase
- proportion of PD-1-expressing CD8+ T cells [2, 11]: significantly fewer
- proportions of Treg [2, 11]: significantly decreased
- ratio of CD8+ T cells to Treg [2, 11]: increased
- proportion of CD8+ T cells in total live cells ([2]; tumors, AE17 model): did not increase
- safety of long-term, low-dose treatment [3]: safety
- animal survival [4]: only modest benefit
- intratumoral Treg cells [5]: selective reduction
- survival [5]: survival advantage
- mesothelin-specific IFN-γ expression in CD8+ T cells [6]: did not enhance
- conversion of Foxp3+ CD25− Treg into IL-2+ CD40L+ cells ([7]; anti-CD3/CD28 antibodies 1 μg/ml, P=0.0015): converted more
- ratio of the proportion of CD25− cells to CD25+ cells in the Foxp3+ CD4+ population ([7]; anti-CD3/CD28 antibodies 1 μg/ml, P=0.0017): significantly increased
- ratio of the proportion of CD25− cells to CD25+ cells in the Foxp3+ CD4+ population ([7]; no anti-CD3/CD28 stimulation): did not change
- proportion of PD-1-expressing CD8+ T cells ([8]; spleens, 40 L model, compared to saline): significantly fewer
- proportion of CD8+ T cells in total live cells ([8]; spleens, 40 L model): did not increase
- proportions of Treg cells ([8]; spleens, 40 L tumor-bearing mice): did not alter
- IL-2+ CD40L+ cells among the Foxp3+ CD25− Treg population ([8]; tumors of 40 L mice): significantly more
- ratio of CD25− cells to CD25+ cells within the Foxp3+ population ([8]; tumors of 40 L mice): significantly increased
- proportion of PD-1-expressing CD8+ T cells [8, 12]: significantly fewer
- proportions of Treg [8, 12]: significantly decreased
- ratio of CD8+ T cells to Treg [8, 12]: increased
- proportion of CD8+ T cells in total live cells ([8]; tumors, 40 L model): did not increase
- animal survival [9]: only modest benefit

Reference: patent US20200190202A1, “Reprogramming of CD8 T Cells with CXCL12 Signaling Inhibitors” (priority 2017, published 2020)
